# Assays:
# [1] = Right ventricle cardiomyopathy in pulmonary hypertension (bleomycin) model; format: in vivo, mouse
# From the text: FIG. 11. A61603 reduces right ventricle (RV) cardiomyopathy in pulmonary hypertension. Mice had bleomycin instilled into the trachea and treatment with A61603 or vehicle. […] Mice with the alpha-1A knocked out did worse (α1ABKO).
# Studies in mice looking at alpha-1 agonist therapy, using A61603, in a model of right ventricular failure from pulmonary hypertension. Failure of the right ventricle (RV) is a serious consequence of HF due to disease of the left ventricle (LV), and is also seen as an isolated problem, e.g. in lung disease (e.g. lung fibrosis), where treatment is extremely limited. Experiments were conducted with A61603 therapy in a mouse model of RV cardiomyopathy caused by pulmonary hypertension, which in turn was caused by lung fibrosis. Installation of bleomycin into the lung, caused fibrosis and secondary pulmonary hypertension and RV failure. Mice were treated continuously with A61603 or vehicle.
# [2] = Traumatic brain injury (TBI) by cortical impact, MRI; format: in vivo, mouse; details: 4 weeks treatment, vs vehicle
# From the text: FIG. 16. The alpha-1A agonist A61603 reduces the amount of brain damage after TBI, quantified by MRI. Mice had TBI by cortical impact, followed by 4 weeks treatment with A61603 or vehicle. MRI was done to identify viable brain (dark) and fluid-filled areas of lost brain tissue (bright) (left). The volume of dead brain was 50% less with A61603 (red, right).
# To test this, we used a mouse model of traumatic brain injury (TBI), produced by a piston impact on the cerebral cortex, done through a hole in the skull. TBI is a clinical problem of great and growing importance.
# We tested the model in the alpha-1A knockout (KO) mouse. TBI in the alpha-1A KO caused the worst damage, compared with normal mice and mice with the alpha-1B KO (FIG. 15). We tested A61603 in normal wild type mice, using the same low BP-neutral dose employed in the cardiac studies, 10 ng/kg/d. The protocol was a prevention trial, and the end-point was magnetic resonance imaging (MRI), which can quantify the amount of dead and viable brain tissue in the living subject (e.g. mouse, human) non-invasively. A61603 reduced the amount of dead brain tissue after TBI (FIG. 16).
# [3] = tested on: neonatal rat cardiac muscle cells; test: Protein synthesis in neonatal rat cardiac muscle cells in vitro; format: cell-based; details: FIG. 2 (neonatal rat) and FIG. 20
# From the text: FIG. 2. A61603 is adaptive in neonatal cardiac muscle cells.
# FIG. 20. A61603 is adaptive in cardiac muscle cells.
# [4] = tested on: adult mouse cardiac muscle cells; test: Protection of adult mouse cardiac muscle cells against doxorubicin (DOX); format: cell-based
# From the text: FIG. 3. A61603 protects adult cardiac muscle cells. In adult mouse cardiac muscle cells, A61603 at a low concentration activates ERK (left), and protects against a cardiotoxic cancer drug, (DOX) (right). These effects are not blocked by a beta-blocker, propranolol (Prop), which is current standard of care in heart failure therapy. That is, A61603 effects are additive to those of a beta-blocker. Knockout of the alpha-1A receptor (AKO) eliminates myocyte protection by A61603 (right), showing that the drug does indeed work through the alpha-1A, as expected.
# [5] = Ischemic, post-myocardial infarction (LAD ligation) cardiomyopathy model; format: in vivo, mouse
# From the text: FIG. 9. A61603 rescues ischemic, post-myocardial infarction (MI) cardiomyopathy. Mice had echo 4 weeks after LAD ligation (MI), at which time they were randomized to treatment with A61603, at the same low dose, or vehicle.
# FIG. 10. A61603 in ischemic, post-MI cardiomyopathy improves growth and protection, and reduces fibrosis. Values are normalized to mice treated with vehicle. Mice treated with A61603 had smaller atria, less fibrosis, higher fractional shortening (FS), smaller left ventricle end diastolic diameter (LVEDD), and larger myocyte size in the surviving heart (MC CSA). The size of the MI was unchanged, as expected because treatment started 4 weeks after LAD ligation, by which time the MI had healed.
# Studies in mice looking at alpha-1 agonist therapy, using A61603, in a model of heart failure and cardiomyopathy due to myocardial infarction (heart attack). We used an animal model of myocardial infarction to test whether the alpha-1A agonist A61603 could rescue (e.g. treat) cardiomyopathy, when treatment was initiated at some time after injury (e.g. after the acute period was complete). Rescue mimics what is seen commonly in the clinic, where patients are admitted with HF, caused by a cardiomyopathy that has been present for months or years. This model was a model of ischemic, post-myocardial infarction (MI) cardiomyopathy. Ischemic heart disease caused by coronary atherosclerosis is extremely common and ischemic and overload cardiomyopathies associated with these diseases comprise the largest group of patients with HF. We used a mouse model of coronary ligation to cause MI. The mouse coronary ligation was permanent, however, patients typically have some form of reperfusion (e.g. angioplasty). We used a mouse model where the MI is healed completely, which is typical for patients admitted with HF late after MI. A61603 treatment rescued (e.g treated) the cardiomyopathy, as measured by heart function (FIG. 9A-B).
# The improvement in function caused by A61603 after MI was again due to direct effects on ardiac muscle cells (FIG. 10). In this case, the effect was to increase the size of muscle cells in the surviving heart wall, helping restore the total amount of contracting heart muscle. There was also less fibrosis than control. The smaller weight of the atria indicates lower pressures within the left ventricle, a beneficial functional outcome, and the smaller diameter of the left ventricle indicates less cardiac enlargement, also a beneficial outcome.
smiles,measurement,setting,value
"CS(=O)(=O)Nc1c(O)ccc2c1CCCC2C1=NCCN1 (stereo not shown) [A61603, N-[1-(4,5-dihydro-1H-imidazol-2-yl)-6-hydroxy-tetralin-5-yl]methanesulfonamide]",RV failure (RV weight normalized to body weight),"[1]; bleomycin into trachea, A61603 vs vehicle",reduced or prevented RV failure
same,"function of RV muscle taken from treated mice, studied in vitro",[1]; bleomycin model,better function
same,"volume of dead brain, less with A61603",[2],50%
same,activation of protein synthesis,[3],high efficacy and potency
same,protection against cardiotoxic cancer drug (DOX),[4]; FIG. 3 right,protects
same,ERK activation and DOX protection in presence of beta-blocker propranolol,[4]; with propranolol (Prop),not blocked
same,atria size,"[5]; post-MI, normalized to vehicle",smaller atria
same,fibrosis,"[5]; post-MI, normalized to vehicle",less fibrosis
same,left ventricle end diastolic diameter (LVEDD),"[5]; post-MI, normalized to vehicle",smaller
same,myocyte size in the surviving heart (MC CSA),"[5]; post-MI, normalized to vehicle",larger
same,fractional shortening (FS),"[5]; post-MI, normalized to vehicle, FIG. 10",higher
same,size of the MI,"[5]; post-MI, treatment started 4 weeks after LAD ligation",unchanged
same,fractional shortening,"[5]; treatment started 4 weeks after LAD ligation (MI), low dose, vs vehicle",stayed the same or improved
